Data from patent US11053476B2, “Generation of cancer stem cells and use thereof” (EXOSTEM BIOTEC LTD., priority 2016, dated 2021).

Test system: Sox2
Experiment: Sox2 expression in generated CSCs, factor added to basic protocol
Format: cell-based
Conditions: PKC activation; FIG. 6B
Description: (§1) In order to generate CSCs in vitro, both primary differentiated cancer cells (primary glioma cells) as well as cells from a cancer cell line (U87 cells) were obtained. Glioma cells and U87 cells were trypsinized, and washed three times with medium +10% FCS. The cells were then resuspended in medium that was brought to a pH of 6.0 and were placed on a rotator and incubated for 45-90 minutes. The cells were then incubated in medium supplemented with EGF and FGF. The cells were optionally kept in mild hypoxic conditions (2-3% oxygen) during this second incubation and were then plated on bacterial plates.
(§2) Tumorspheres formed on these plates within one week and were removed from the cells that had attached to the dish. The tumorspheres were disaggregated and the cells were re-plated at limiting dilution to generate secondary spheroids. The secondary tumorspheres were then characterized for CSC specific markers, the ability to self-renew and the ability to generate tumors that recapitulate the parental tumors.
(§3) Knowing that the basic protocol for generating CSCs (acid, EGF/FGF and two rounds of sphere generation) was successful; several modifications to the protocol were examined. […] Second, a wide range of factors were found, that when supplemented to the EGF and FGF containing media, increased the efficacy of the protocol, either by increasing the number of CSCs produced or by increasing their stemness.

| Molecule | effect on Sox2 expression | effectiveness on Sox2 expression compared with PMA |
| --- | --- | --- |
| CCCCCCCCCCCCCC(=O)O[C@@H]1[C@@H](C)[C@@]2(O)[C@@H](C=C(CO)C[C@]3(O)C(=O)C(C)=C[C@@H]23)[C@@H]2C(C)(C)[C@]12OC(C)=O [PMA, phorbol 12-myristate 13-acetate, reference compound] | increase Sox2 expression |  |
| PKC alpha: protein kinase C alpha; activators or overexpression | increase Sox2 expression | more effective that PMA |

Test system: differentiated cancer cells
Experiment: Efficacy and penetrance of dedifferentiation with transcription and secreted factors
Format: cell-based
Conditions: expression in the cells or in their media during second incubation or tumorsphere formation
Description: as §1, §2
Lastly, several transcription factors and secreted factors that are known to enhance stemness or cancer progression were introduced into the differentiated cells during the second incubation or during tumorsphere formation.

| Molecule | effect on dedifferentiation brought about by the standard protocol |
| --- | --- |
| LIF: transcription or secreted factor expressed in the cells or in their media | increase the efficacy and penetrance of the dedifferentiation |
| NANOG: transcription or secreted factor expressed in the cells or in their media | increase the efficacy and penetrance of the dedifferentiation |
| STAT3: transcription or secreted factor expressed in the cells or in their media | increase the efficacy and penetrance of the dedifferentiation |

Test system: CSCs generated from differentiated cancer cells
Experiment: Self-renewal of CSCs (secondary tumorspheres) generated from differentiated cancer cells, factor added to basic protocol
Format: cell-based
Conditions: added to second incubation; data not shown
Description: as §1, §2, §3

| Molecule | efficacy in enhancing dedifferentiation |
| --- | --- |
| CCCC(CCC)C(=O)O [Valporic acid] | effective |
| insulin: insulin, added to the second incubation | effective |

Same assay, conditions: small molecule added to second incubation; FIG. 6A

| Molecule | effect on rate of self-renewal |
| --- | --- |
| N[C@@H]1C[C@H]1c1ccccc1 (racemic) [tranylcypromine] | increase the rate of self-renewal |
| Nc1nccc2c1ncn2[C@@H]1C=C(CO)[C@@H](O)[C@H]1O [3-deazaneplanocin A] | increase the rate of self-renewal |
| O=C(O)CCCc1ccccc1 [4-phenylbutyrate] | increase the rate of self-renewal |
| Nc1ncn([C@H]2C[C@H](O)[C@@H](CO)O2)c(=O)n1 [5-aza-2′-deoxycytidine] | increase the rate of self-renewal |
| Cc1c[nH]c(-c2cnc(NCCNc3ccc(C#N)cn3)nc2-c2ccc(Cl)cc2Cl)n1 [CHIR99021] | increase the rate of self-renewal |
| CCCCCCCCCCCCCC=CC(O)C(CO)NC(=O)CCCCC (stereo not shown) [Ceramide C6] | increase the rate of self-renewal |
| CCCCCCCCCCCCCC(=O)O[C@@H]1[C@@H](C)[C@@]2(O)[C@@H](C=C(CO)C[C@]3(O)C(=O)C(C)=C[C@@H]23)[C@@H]2C(C)(C)[C@]12OC(C)=O [PMA, phorbol 12-myristate 13-acetate, reference compound] | increase the rate of self-renewal |
| C[C@@H](N)[C@H]1CC[C@H](C(=O)Nc2ccncc2)CC1 [Y-27632] | increase the rate of self-renewal |
